Results as given in US8188048B2 (priority 2006, dated 2012).

Test system: CCI-rats (chronic constriction injury of the sciatic nerve); tactile allodynia in ipsilateral hindpaw, antinociception in contralateral hindpaw
Design: species or system Sprague-Dawley rats
Settings: rat, in vivo

CN1CC[C@]23c4c5ccc(O)c4O[C@H]2[C@@H](O)C=C[C@H]3[C@H]1C5.Cl [Morphine, Morphine hydrochloride, reference compound]
ED10: 0.7 nmol | ED20: 3.5 nmol | time of peak antiallodynic and antinociceptive responses post-dosing: 0.5 to 0.75 h | dose-response at high i.t. doses (hydrochloride): pronounced sub-maximal ‘ceiling’ effect
